59 compounds from patent US9951046B2, “TRPA1 modulators” (Algomedix, Inc., priority 2014, dated 2018) can be followed below.

A value given as a limit tells only on which side of the number the result lay.

T1 sequence (O75762 whole entry): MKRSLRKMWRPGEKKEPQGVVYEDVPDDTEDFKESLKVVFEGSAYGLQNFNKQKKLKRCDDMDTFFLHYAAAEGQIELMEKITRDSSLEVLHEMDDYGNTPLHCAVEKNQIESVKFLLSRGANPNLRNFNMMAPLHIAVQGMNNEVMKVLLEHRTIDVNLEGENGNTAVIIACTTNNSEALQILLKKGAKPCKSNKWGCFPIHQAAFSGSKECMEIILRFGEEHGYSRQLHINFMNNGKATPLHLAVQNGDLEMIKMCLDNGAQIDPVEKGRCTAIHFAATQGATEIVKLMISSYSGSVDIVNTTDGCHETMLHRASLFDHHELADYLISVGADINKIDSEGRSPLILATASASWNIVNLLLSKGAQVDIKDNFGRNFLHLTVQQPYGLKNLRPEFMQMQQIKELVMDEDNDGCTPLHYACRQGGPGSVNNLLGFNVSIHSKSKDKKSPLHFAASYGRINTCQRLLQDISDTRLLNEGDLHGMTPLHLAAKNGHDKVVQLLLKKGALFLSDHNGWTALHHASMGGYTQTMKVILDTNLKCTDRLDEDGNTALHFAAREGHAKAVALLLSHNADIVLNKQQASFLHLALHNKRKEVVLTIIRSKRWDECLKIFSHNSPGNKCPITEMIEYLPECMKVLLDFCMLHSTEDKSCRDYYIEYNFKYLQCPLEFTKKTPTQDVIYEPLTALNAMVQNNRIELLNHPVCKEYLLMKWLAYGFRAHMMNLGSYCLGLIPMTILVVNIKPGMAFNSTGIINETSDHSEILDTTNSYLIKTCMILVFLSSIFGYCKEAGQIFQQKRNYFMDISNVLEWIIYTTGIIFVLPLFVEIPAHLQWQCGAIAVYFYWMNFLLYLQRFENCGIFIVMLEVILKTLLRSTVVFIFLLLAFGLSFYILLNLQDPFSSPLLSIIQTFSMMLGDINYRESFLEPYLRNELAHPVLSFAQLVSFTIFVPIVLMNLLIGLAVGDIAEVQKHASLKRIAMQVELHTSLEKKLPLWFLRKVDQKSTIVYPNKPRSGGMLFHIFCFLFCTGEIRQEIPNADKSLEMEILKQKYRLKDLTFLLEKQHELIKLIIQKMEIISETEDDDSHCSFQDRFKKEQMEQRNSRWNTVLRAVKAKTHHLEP

One assay addresses T1, human TRPA1 (Homo sapiens, UniProt O75762).
T1 construct: expressed in transfected cells
The assay is described as follows: Cell-based functional intracellular calcium ([Ca2+]i) assay, Fluo-4/Fluo-8, FlexStation, challenge with reference TRPA1 agonist (FFA, AITC or 4-HNE).
Conditions: not given
An outline of the steps:
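Doxycycline-induced (1 μg/ml) HEK293 expressing human TRPA1, with 5 μM ruthenium red during induction, loaded with Fluo-4 or Fluo-8 plus 2 mM probenecid; FlexStation read at 20-25° C, sometimes with 0.1% BSA.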
Take `O=C(c1cc(-c2ccncc2)n(-c2ccc(F)c(F)c2)n1)N1CCC2(CC1)OCCO2` [Compound 151]: the IC50 is above 25 µM. The same measure, in the same setting: as for `O=C(c1cc(-c2cccnc2)n(-c2ccc(F)c(C(F)(F)F)c2)n1)N1C2CCC1CC(n1c(=O)[nH]c3ccc(F)c(F)c31)C2` (centres unmarked) [Compound 331], the figure is 0.001 to 5 µM; as for `O=C(c1cc(-c2ccncc2)n(-c2cnccn2)n1)N1CCC2(CC1)OCCO2` [Compound 169], above 25 µM; as for `O=C(c1cc(-c2ccncc2)n(-c2cccc(C(F)(F)F)c2)n1)N1CCC2(CC1)OCCO2` [Compound 148], above 25 µM.

`O=C(c1cc(-c2ccncc2)n(-c2ccc(C(F)(F)F)cc2)n1)N1CCC2(CC1)OCCO2` [Compound 145]: the IC50 fell in the range of 5 to 25 µM.

Staying with this assay, now noted: HEK293 cells expressing human TRPA1; IC50 class after addition of reference TRPA1 agonist (FFA, AITC or 4-HNE); read-out: human TRPA1-HEK Activity.
On to `O=C(c1cc(-c2cccnc2)n(-c2ccc(C(F)(F)F)cc2C(F)(F)F)n1)N1CCC2(CC1)C(=O)NCN2c1ccc(F)cc1` [Compound 322], for which the IC50 was 0.001 to 5 µM. The same measure, in the same setting: then `O=C1Nc2cc(F)ccc2C2(CCN(C(=O)c3cc(-c4cccnc4)n(-c4ccc(F)c(C(F)(F)F)c4)n3)CC2)O1` [Compound 278], with 0.001 to 5 µM; and `O=C(c1cc(-c2cccnc2)n(-c2ccc(C(F)(F)F)c(C(F)(F)F)c2)n1)N1CCC(n2c(=O)[nH]c3ccc(F)c(F)c32)CC1` [Compound 285], with 0.001 to 5 µM.

As for `O=C(c1cc(-c2ccncc2)n(-c2cccc(C(F)(F)F)c2)n1)N1CCC(n2c(=O)[nH]c3ccccc32)CC1` [Compound 147], the IC50 is above 25 µM.

Regarding `O=C1Nc2ccc(Cl)cc2C2(CCN(C(=O)c3cc(-c4cccnc4)n(-c4ccc(F)c(C(F)(F)F)c4)n3)CC2)O1` [Compound 280], the IC50 is 0.001 to 5 µM.

As for `Cc1c(C(=O)N2CCC3(CC2)C(=O)NCN3c2ccc(F)cc2)nn(-c2ccc(C(F)(F)F)c(F)c2)c1-c1cccnc1` [Compound 265], the IC50 lay in the range of 0.001 to 5 µM. Consider `N#Cc1cc(-n2nc(C(=O)N3CCC(n4c(=O)[nH]c5ccc(F)c(F)c54)CC3)cc2-c2cccnc2)ccc1F` [Compound 248], for which the IC50 lay in the range of 0.001 to 5 µM. Still for that read-out and setting: as for `O=C(c1cc(-c2cccnc2)n(-c2ccc(I)c(C(F)(F)F)c2)n1)N1CCC(n2c(=O)[nH]c3ccc(F)c(F)c32)CC1` [Compound 327], the figure is 0.001 to 5 µM; as for `O=C(Nc1ccc2c(c1)COC2=O)c1cc(-c2ccncc2)n(-c2ccc(C(F)(F)F)c(F)c2)n1` [Compound 113], above 25 µM; as for `Cn1c(=O)oc2ccc(NC(=O)c3cc(-c4ccncc4)n(-c4ccccc4)n3)cc21` [Compound 39], above 25 µM. The same measure, in the same setting: as for `O=C(c1cc(-c2ccncc2)n(-c2ccccc2)n1)N1CCN(c2ncccc2C(F)(F)F)CC1` [Compound 34], the figure is above 25 µM; as for `O=C(Nc1ccc2c(c1)COC2=O)c1cc(-c2ccncc2)n(-c2ccc(C(F)(F)F)cc2)n1` [Compound 70], 5 to 25 µM. Same read-out and setting: then `N#Cc1ccc(-n2nc(C(=O)N3CCC(n4c(=O)[nH]c5ccc(F)c(F)c54)CC3)cc2-c2cccnc2)cc1` [Compound 212], with 0.001 to 5 µM. With `O=C1CSC2(CCN(C(=O)c3cc(-c4ccncc4)n(-c4ccc(C(F)(F)F)cc4)n3)CC2)N1` [Compound 68], the IC50 is above 25 µM.

For `O=C(c1cc(-c2cccnc2)n(-c2ccc(C(F)(F)F)c(F)c2)n1)N1CCC2(CC1)C(=O)Nc1ccccc12` [Compound 259], the IC50 was 5 to 25 µM. Still for that read-out and setting: then `O=C(c1cc(-c2cnccn2)n(-c2ccc(F)c(C(F)(F)F)c2)n1)N1CCC2(CC1)C(=O)NCN2c1ccc(F)cc1` [Compound 306], with 0.001 to 5 µM. `O=C(c1cc(-c2cccnc2)n(-c2cc(F)c(F)c(F)c2)n1)N1CCC2(CC1)C(=O)NCN2c1ccc(I)cc1` [Compound 200]: the IC50 is 0.001 to 5 µM. On to `O=C(c1cc(-c2ccncc2)n(-c2ccc(C(F)(F)F)nc2)n1)N1CCC2(CC1)C(=O)NCN2c1ccc(Cl)cc1` [Compound 121], for which the IC50 is above 25 µM. The same measure, in the same setting: then `O=C1CSC2(CCN(C(=O)c3cc(-c4ccncc4)n(-c4ccc(C(F)(F)F)c(F)c4)n3)CC2)N1` [Compound 111], with above 25 µM; and `O=C(c1cc(-c2ccncc2)n(-c2ccc(C(F)(F)F)c(F)c2)n1)N1CCC2(CC1)SCCS2` [Compound 107], with above 25 µM.

In the case of `O=C(c1nn(-c2ccc(F)c(C(F)(F)F)c2)c2c1CCc1cccnc1-2)N1CCC(n2c(=O)[nH]c3ccc(F)c(F)c32)CC1` [Compound 316], the IC50 was 0.001 to 5 µM. For the compound `O=C1OC2(CCN(C(=O)c3cc(-c4ccncc4)n(-c4ccc(C(F)(F)F)nc4)n3)CC2)c2ccccc21` [Compound 123], the IC50 was above 25 µM. Consider `O=C1Nc2cc(F)c(F)cc2C2(CCN(C(=O)c3cc(-c4cccnc4)n(-c4ccc(F)c(C(F)(F)F)c4)n3)CC2)O1` [Compound 273], for which the IC50 lay within 0.001 to 5 µM. In the case of `O=C(c1cc(-c2cccnc2)n(-c2ccc(I)cc2)n1)N1CCC2(CC1)C(=O)NCN2c1ccc(F)cc1` [Compound 246], the IC50 fell in the range of 0.001 to 5 µM.

For `Cn1c(=O)c(=O)n(C)c2cc(NC(=O)c3cc(-c4ccncc4)n(-c4ccc(F)c(F)c4)n3)ccc21` [Compound 91], the IC50 was above 25 µM.

`O=C(c1cc(-c2ccncc2)n(-c2ccc(C(F)(F)F)cc2)n1)N1CCC2(CC1)SCCS2` [Compound 63]: the IC50 is above 25 µM. `O=C(c1cc(-c2ccncc2)n(-c2ccc(C(F)(F)F)cc2)n1)N1CCC2(CC1)C(=O)NCN2c1ccccc1` [Compound 143]: the IC50 lay in the range of 5 to 25 µM. Same read-out and setting: then `O=C(c1cc(-c2cccnc2)n(-c2ccc(OC(F)(F)F)c(F)c2)n1)N1CCC(n2c(=O)[nH]c3ccc(F)c(F)c32)CC1` [Compound 215], with 0.001 to 5 µM; and `O=C(c1cc(-c2ccncc2)n(-c2ccccc2)n1)N1CCC(n2c(=O)[nH]c3ccccc32)CC1` [Compound 25], with above 25 µM; and `N#Cc1ccc(-n2nc(C(=O)N3CCC(n4c(=O)[nH]c5ccc(F)c(F)c54)CC3)cc2-c2cccnc2)c(C(F)(F)F)c1` [Compound 325], with 0.001 to 5 µM.

Take `O=C(c1cc(-c2cccnc2)n(-c2ccc(C(F)(F)F)c(F)c2F)n1)N1CCC(n2c(=O)[nH]c3ccc(F)c(F)c32)CC1` [Compound 222]: the IC50 lay in the range of 0.001 to 5 µM. Same read-out and setting: then `O=C(c1cc(-c2cccnc2Cl)n(-c2ccc(C(F)(F)F)c(F)c2)n1)N1CCC(n2c(=O)[nH]c3ccc(F)c(F)c32)CC1` [Compound 247], with above 25 µM; and `N#Cc1ccc2c(c1)[nH]c(=O)n2C1CCN(C(=O)c2cc(-c3cccnc3)n(-c3ccc(C(F)(F)F)c(F)c3)n2)CC1` [Compound 228], with 0.001 to 5 µM.

On to `O=C(c1cc(-c2cccnc2)n(-c2ccc(C(F)(F)F)c(F)c2)n1)N1CCC(n2c(=O)[nH]c3ccc(F)c(C(F)(F)F)c32)CC1` [Compound 196], for which the IC50 lay within 0.001 to 5 µM. Turning to `O=C(c1cc(-c2cccnc2)n(-c2ccc(F)c(C(F)(F)F)c2)n1)N1CCC(n2c(=S)[nH]c3ccc(F)c(F)c32)CC1` [Compound 291], the IC50 was in the range of 0.001 to 5 µM.

`O=C(c1cc(-c2ccncc2)n(-c2ccc(F)c(F)c2)n1)N1CCC2(CC1)NCN(c1ccccc1)C2=O` [Compound 95]: the IC50 is above 25 µM. Same read-out and setting: then `CN1C(=O)NC2(CCN(C(=O)c3cc(-c4ccncc4)n(-c4ccc(C(F)(F)F)cc4)n3)CC2)C1=O` [Compound 75], with above 25 µM.

For `O=C1OC2(CCN(C(=O)c3cc(-c4ccncc4)n(-c4ccc(C(F)(F)F)nc4)n3)CC2)c2ccc(Cl)cc21` [Compound 124], the IC50 was above 25 µM. On the same count and under the same terms, as for `O=C(c1cc(-c2ccncc2)n(-c2ccc(C(F)(F)F)nc2)n1)N1CCC2(CC1)C(=O)NCN2c1ccc(F)cc1` [Compound 120], the figure is 5 to 25 µM; as for `O=C(c1cc(-c2ccncc2)n(-c2cnccn2)n1)N1CCC2(CC1)C(=O)NCN2c1ccccc1` [Compound 167], 5 to 25 µM; as for `N#Cc1cccc2[nH]c(=O)n(C3CCN(C(=O)c4cc(-c5cccnc5)n(-c5ccc(C(F)(F)F)c(F)c5)n4)CC3)c12` [Compound 243], above 25 µM. The same measure, in the same setting: then `CN1C(=O)COc2cc(NC(=O)c3cc(-c4ccncc4)n(-c4cnccn4)n3)ccc21` [Compound 131], with above 25 µM; and `O=C1Nc2ccc(C(F)(F)F)cc2C2(CCN(C(=O)c3cc(-c4cccnc4)n(-c4ccc(F)c(C(F)(F)F)c4)n3)CC2)O1` [Compound 274], with 0.001 to 5 µM; and `O=C(c1cc(-c2ccncc2)n(-c2cnccn2)n1)N1CCC(c2nc3ccccc3o2)CC1` [Compound 129], with above 25 µM.

As for `O=C(c1cc(-c2cccnc2)n(-c2ccc(F)c(C(F)(F)F)c2)n1)N1CCC2(CC1)C(=O)NCN2c1cc(Cl)c(F)c(Cl)c1` [Compound 332], the IC50 lay within 0.001 to 5 µM.

As for `O=C1Nc2ncccc2C2(CCN(C(=O)c3cc(-c4cccnc4)n(-c4ccc(F)c(C(F)(F)F)c4)n3)CC2)O1` [Compound 281], the IC50 fell in the range of 0.001 to 5 µM. Still for that read-out and setting: as for `O=C(c1cc(-c2ccncc2)n(-c2ccc(C(F)(F)F)nc2)n1)N1CC(=O)N2CCc3ccccc3C2C1` (centres unmarked) [Compound 125], the figure is above 25 µM. Same read-out and setting: as for `N#Cc1ccc2[nH]c(=O)n(C3CCN(C(=O)c4cc(-c5cccnc5)n(-c5ccc(C(F)(F)F)c(F)c5)n4)CC3)c2c1` [Compound 190], the figure is 0.001 to 5 µM; as for `O=C(c1cc(-c2cccnc2)n(-c2cc(F)c(F)c(F)c2)n1)N1CCC2(CC1)C(=O)NCN2c1ccc(Br)cc1` [Compound 201], 0.001 to 5 µM; as for `O=C1CSC2(CCN(C(=O)c3cc(-c4ccncc4)n(-c4ccc(F)c(F)c4)n3)CC2)N1` [Compound 90], above 25 µM. Same read-out and setting: as for `O=C(c1cc(-c2ccnnc2)n(-c2cc(F)c(F)c(F)c2)n1)N1CCC(n2c(=O)[nH]c3ccc(F)c(F)c32)CC1` [Compound 321], the figure is 0.001 to 5 µM. Take `O=C(c1cc(-c2ccncc2)n(-c2ccc(C(F)(F)F)c(F)c2)n1)N1CCC(N2C(=O)OC[C@H]2c2ccccc2)CC1` [Compound 106]: the IC50 is above 25 µM. In the case of `O=C(Nc1ccc2c(c1)OC(F)(F)O2)c1cc(-c2ccncc2)n(-c2ccc(C(F)(F)F)cc2)n1` [Compound 66], the IC50 was above 25 µM. The same measure, in the same setting: then `O=C(c1cc(-c2cccnc2)n(-c2ccc(C(F)(F)F)c(F)c2)n1)N1CCC2(CC1)C(=O)NCN2c1cc(F)c(F)c(F)c1` [Compound 186], with 0.001 to 5 µM.
